# Literature values, collected in US10576065B2, “Pharmaceutical composition containing rifaximin alpha and delta” (Sandoz AG, priority 2016, dated 2020).
# Where two headings read alike, the source gives them in different places.
# Legend:
# [1] = human
# [2] = design: AUC: concentration or dose not given beside the values; settings: dogs
# [3] = film coated tablets, 400 mg (Blandizzi et al.), listed as Prior art alpha
# [4] = film coated tablets, 400 mg (Blandizzi et al.)
Structure (SMILES),AUC ([1]; 200 mg),Cmax ([1]; 200 mg),AUC ([1]; 400 mg),Cmax ([1]; 400 mg),"AUCt [1, 3]","Cmax [1, 3]",AUC [2],Cmax [2],"AUCt [1, 4]","Cmax [1, 4]"
"CO[C@H]1/C=C/O[C@@]2(C)Oc3c(C)c(O)c4c(O)c(c5c(nc6cc(C)ccn65)c4c3C2=O)NC(=O)/C(C)=C\C=C\[C@H](C)[C@H](O)[C@@H](C)[C@@H](O)[C@@H](C)[C@H](OC(C)=O)[C@@H]1C [Alpha, rifaximin]",5.77 ng·h/mL,1.59 ng/mL,13.03 ng·h/mL,3.54 ng/mL,13.03 ng·h/mL,3.54 ng/mL,17 ng·h/mL,2.6 ng/mL,–,–
"CO[C@H]1/C=C/O[C@@]2(C)Oc3c(C)c(O)c4c(O)c(c5c(nc6cc(C)ccn65)c4c3C2=O)NC(=O)/C(C)=C\C=C\[C@H](C)[C@H](O)[C@@H](C)[C@@H](O)[C@@H](C)[C@H](OC(C)=O)[C@@H]1C [Beta, rifaximin]",–,–,–,–,–,–,12 ng·h/mL,1.1 ng/mL,–,–
"CO[C@H]1/C=C/O[C@@]2(C)Oc3c(C)c(O)c4c(O)c(c5c(nc6cc(C)ccn65)c4c3C2=O)NC(=O)/C(C)=C\C=C\[C@H](C)[C@H](O)[C@@H](C)[C@@H](O)[C@@H](C)[C@H](OC(C)=O)[C@@H]1C [Gamma, rifaximin]",–,–,–,–,–,–,"4,894 ng/ml × h","1,085.1 ng/ml",–,–
"CO[C@H]1/C=C/O[C@@]2(C)Oc3c(C)c(O)c4c(O)c(c5c(nc6cc(C)ccn65)c4c3C2=O)NC(=O)/C(C)=C\C=C\[C@H](C)[C@H](O)[C@@H](C)[C@@H](O)[C@@H](C)[C@H](OC(C)=O)[C@@H]1C [amorphous, rifaximin]",16.13 ng·h/mL,3.70 ng/mL,68.80 ng·h/mL,15.01 ng/mL,–,–,–,–,68.80 ng·h/mL,15.01 ng/mL

# Results, then the compound that gave them:
AUC ([1]; 200 mg),Cmax ([1]; 200 mg),AUC ([1]; 400 mg),Cmax ([1]; 400 mg),"AUCt [1, 3]","Cmax [1, 3]",AUC [2],Cmax [2],"AUCt [1, 4]","Cmax [1, 4]",Structure (SMILES)
–,–,–,–,–,–,830 ng·h/mL,308.3 ng/mL,–,–,"CO[C@H]1/C=C/O[C@@]2(C)Oc3c(C)c(O)c4c(O)c(c5c(nc6cc(C)ccn65)c4c3C2=O)NC(=O)/C(C)=C\C=C\[C@H](C)[C@H](O)[C@@H](C)[C@@H](O)[C@@H](C)[C@H](OC(C)=O)[C@@H]1C [Delta, rifaximin]"
–,–,–,–,–,–,77 ng·h/mL,6.9 ng/mL,–,–,"CO[C@H]1/C=C/O[C@@]2(C)Oc3c(C)c(O)c4c(O)c(c5c(nc6cc(C)ccn65)c4c3C2=O)NC(=O)/C(C)=C\C=C\[C@H](C)[C@H](O)[C@@H](C)[C@@H](O)[C@@H](C)[C@H](OC(C)=O)[C@@H]1C [Epsilon, rifaximin]"
